Assay results published in patent publication US20190151312A1, “HEPARAN SULFATE BIOSYNTHESIS INHIBITORS FOR THE TREATMENT OF DISEASES” (BioMarin Pharmaceutical Inc., priority 2014, published 2019).

The molecules below were run on GM01896 cells (MPS II dermal fibroblasts) (assay: Assay 1: MPS cellular assay, MPS II (heparan sulfate disaccharide biomarkers by LC-MS)). Conditions: Assay 1 for MPS II, heparan sulfate disaccharide biomarkers (I2a4, I2a6, I2S0 and/or I2S6), read-out: IC50 Range.
Type: cell-based, human
Experimental: Dermal fibroblasts from humans with an MPS disorder and from healthy donors are grown. Cells are expanded and kept in culture for analysis. Human foreskin fibroblasts can be obtained from the American Type Culture Collection (CRL-1634). Human dermal fibroblasts derived from biopsies of individuals are purchased from Coriell Institute: clinically healthy individuals, GM00408, GM00409, GM00200 (clinically unaffected sibling of an individual with metachromatic leukodystrophy), GM05659, GM08398, and GM15871 (clinically unaffected sibling of an individual with unclassified Ehlers-Danlos syndrome); heterozygous MPS I carriers, GM01392, GM01393 and GM0003; homozygous individuals affected with MPS I, GM06214, GM11495, GM00034, GM01391 and GM01256; individuals with MPS II, GM01896, GM03181, GM00615 and GM00298; individuals with MPS IIIA, GM00879, GM00643, GM00934, GM06110 and GM00629; MPS IIIB, GM01426; MPS IIIC, GM05157; MPS IIID, GM05093; and MPS VII, GM00121. All cells are grown in DMEM containing 50 U ml-1 penicillin, […] ml-1 streptomycin, 2 mM glutamine and 10% FBS. Cells are seeded on 15-cm-diameter tissue culture dishes, grown to confluence and maintained in culture for analysis. Sulfamidase activity in cell extracts is measured with 4-methylumbelliferyl-α-D-N-sulfoglucosaminide according the vendors instructions substituting Tris-acetate buffer (pH 6.5; Moscerdam).
Cells are treated with a compound of the invention at a concentration at or below 30 μM for 4 to 21 days. Cell monolayers are washed with phosphate buffered saline and detached by treatment with GIBCO trypsin-EDTA solution (Invitrogen). After centrifugation, the supernatant is removed and the cells are lysed in 0.5 mL of 0.1 N sodium hydroxide. The amount of protein is determined by bicinchoninic acid (BCA assay, Thermo Scientific). GAGs are isolated by anion exchange chromatography and digested with glycosaminoglycan lyases (heparinases I, II, and III, IBEX).
Enzymatically depolymerized GAG preparations are differentially mass labeled by reductive amination with [^12C6]aniline. Briefly, heparan sulfate disaccharides (1-10 pmol) are dried down in a centrifugal evaporator and reacted with [^12C6]aniline or [^13C6]aniline (15 μL, 165 μmol) and 15 μL of 1 M NaCNBH3 (Sigma-Aldrich) freshly prepared in dimethylsulfoxide/acetic acid (7:3, v/v) is added to each sample. Reactions are carried out at 37° C. for 16 h and then dried in a centrifugal evaporator. Unsubstituted amines are reacted with propionic anhydride (Sigma-Aldrich). Dried samples are reconstituted in 20 μL of 50% methanol, and 3 μL of propionic anhydride (Sigma-Aldrich, 23.3 μmol) is added. Reactions are carried out at ˜23° C. for 2 h. Acylated disaccharides are subsequently aniline tagged as described above. Each sample is mixed with commercially available standard unsaturated disaccharides (Seikagaku), standard N-sulfoglucosamine, glucosamine-6-sulfate, N-acetylgalactosamine-4-sulfate and N-acetylgalactosamine-6-sulfate (Sigma-Aldrich), and/or synthesized α-L-idopyranosyluronate-(1,4)-2-N-acetyl-2-deoxy-α/β-D-glucopyranoside (I0S0). All standards are tagged with [^13C6]aniline (Sigma-Aldrich). Samples are then analyzed by LC-MS using an LTQ Orbitrap Discovery electrospray ionization mass spectrometer (Thermo Scientific) equipped with quaternary HPLC pump (Finnigan Surveyor MS pump) and a reverse-phase capillary column as described in J. Biol. Chem. 2008, 283(48), 33674.
MPS II: Assay 1, as described above, was used to determine activity for MPS II using GM01896 cells. […] Extracted ion chromatograms were obtained. Cell viability was monitored using alamar blue or ATP quantification. IC50's were calculated using curve fitting within the ChemInnovation CBIS database system.
`Cn1nc(N2CCOCC2)c2ccc(-c3cc(Nc4ccc(Cl)cc4)nc(N4CCOCC4)n3)cc21` [(4-chlorophenyl)[6-(1-methyl-3-morpholin-4-yl(1H-indazol-6-yl))-2-morpholin-4-ylpyrimidin-4-yl]amine] showed an IC50 of 1000 to 5000 nM.
For `Cn1nc(N2CCCC2)c2ccc(-c3cc(Nc4ccc(Cl)cc4)nc(N4CCOCC4)n3)cc21` [(4-chlorophenyl)[6-(1-methyl-3-pyrrolidinyl(1H-indazol-6-yl))-2-morpholin-4-ylpyrimidin-4-yl]amine], the IC50 was 1000 to 5000 nM.

Same assay, conditions: Homo sapiens, Fibroblast, Assay 1 for MPS II, heparan sulfate disaccharide biomarkers (I2a4, I2a6, I2S0 and/or I2S6), read-out: IC50 Range
For `Cn1nc(NCCCCN2CCCC2)c2ccc(-c3cc(Nc4ccc(Cl)cc4)nc(N4CCOCC4)n3)cc21` [(4-chlorophenyl)(6-{1-methyl-3-[(4-pyrrolidinylbutyl)amino](1H-indazol-6-yl)}-2-morpholin-4-ylpyrimidin-4-yl)amine], the IC50 was 500 to 1000 nM.
With `COCCNc1nc2ccc(-c3cc(Nc4ccc(Cl)cc4)nc(N4CCOCC4)n3)cc2n1C` [(4-chlorophenyl)(6-{2-[(2-methoxyethyl)amino]-1-methylbenzimidazol-6-yl}-2-morpholin-4-ylpyrimidin-4-yl)amine] the IC50 was 500 to 1000 nM.
`Clc1ccc(Nc2cc(-c3ccc4c(c3)ncn4C3COC3)nc(N3CCOCC3)n2)cc1` [(4-chlorophenyl)[2-morpholin-4-yl-6-(1-oxetan-3-ylbenzimidazol-5-yl)pyrimidin-4-yl]amine] showed an IC50 of 500 to 1000 nM.
In the case of `Clc1ccc(Nc2cc(-c3ccc4ncn(C5COC5)c4c3)nc(N3CCOCC3)n2)cc1` [(4-chlorophenyl)[2-morpholin-4-yl-6-(1-oxetan-3-ylbenzimidazol-6-yl)pyrimidin-4-yl]amine], the IC50 is reported as < 500 nM.
In the case of `Cc1c(Nc2ccc(Cl)cc2)nc(N2CCOCC2)nc1-c1ccc2cnn(C)c2c1` [(4-chlorophenyl)[5-methyl-6-(1-methyl(1H-indazol-6-yl))-2-morpholin-4-ylpyrimidin-4-yl]amine], the IC50 is reported as 1000 to 5000 nM.
With `Clc1ccc(Nc2cc(-c3ccc4cnn(C5CCC5)c4c3)nc(N3CCOCC3)n2)cc1` [(4-chlorophenyl)[6-(1-cyclobutyl(1H-indazol-6-yl))-2-morpholin-4-ylpyrimidin-4-yl]amine] the IC50 was 1000 to 5000 nM.
`Cc1nc2cc(-c3cc(Nc4ccc(Cl)cc4)nc(N4CCOCC4)n3)ccc2n1C1CCC1` [(4-chlorophenyl)[6-(1-cyclobutyl-2-methylbenzimidazol-5-yl)-2-morpholin-4-ylpyrimidin-4-yl]amine] showed an IC50 of 1000 to 5000 nM.
`Cc1nc2ccc(-c3cc(Nc4ccc(Cl)cc4)nc(N4CCOCC4)n3)cc2n1C1CCC1` [(4-chlorophenyl)[6-(1-cyclobutyl-2-methylbenzimidazol-6-yl)-2-morpholin-4-ylpyrimidin-4-yl]amine] gave an IC50 of 1000 to 5000 nM.
With `Clc1ccc(Nc2cc(-c3ccc4ncn(C5CCC5)c4c3)nc(N3CCOCC3)n2)cc1` [(4-chlorophenyl)[6-(1-cyclobutylbenzimidazol-6-yl)-2-morpholin-4-ylpyrimidin-4-yl]amine] the IC50 was 500 to 1000 nM.
`Clc1ccc(Nc2cc(-c3ccc4cnn(C5CC5)c4c3)nc(N3CCOCC3)n2)cc1` [(4-chlorophenyl)[6-(1-cyclopropyl(1H-indazol-6-yl))-2-morpholin-4-ylpyrimidin-4-yl]amine] gave an IC50 of 1000 to 5000 nM.
`Cc1nc2ccc(-c3cc(Nc4ccc(Cl)cc4)nc(N4CCOCC4)n3)cc2n1C1CC1` [(4-chlorophenyl)[6-(1-cyclopropyl-2-methylbenzimidazol-6-yl)-2-morpholin-4-ylpyrimidin-4-yl]amine] was tested, and the IC50 was 500 to 1000 nM.
`Clc1ccc(Nc2cc(-c3ccc4c(c3)ncn4C3CC3)nc(N3CCOCC3)n2)cc1` [(4-chlorophenyl)[6-(1-cyclopropylbenzimidazol-5-yl)-2-morpholin-4-ylpyrimidin-4-yl]amine] was tested, and the IC50 was 1000 to 5000 nM.
For `Clc1ccc(Nc2cc(-c3ccc4ncn(C5CC5)c4c3)nc(N3CCOCC3)n2)cc1` [(4-chlorophenyl)[6-(1-cyclopropylbenzimidazol-6-yl)-2-morpholin-4-ylpyrimidin-4-yl]amine], the IC50 was 500 to 1000 nM.
For `Cn1ncc2ccc(-c3cc(Nc4ccc(Cl)cc4)nc(N4CCOCC4)n3)cc21` [(4-chlorophenyl)[6-(1-methyl(1H-indazol-6-yl))-2-morpholin-4-ylpyrimidin-4-yl]amine], the IC50 was 500 to 1000 nM.
With `Cn1c(N2CCCC2)nc2ccc(-c3cc(Nc4ccc(Cl)cc4)nc(N4CCOCC4)n3)cc21` [(4-chlorophenyl)[6-(1-methyl-2-pyrrolidinylbenzimidazol-6-yl)-2-morpholin-4-ylpyrimidin-4-yl]amine] the IC50 was 1000 to 5000 nM.
`Cn1cnc2cc(-c3cc(Nc4ccc(Cl)cc4)nc(N4CCOCC4)n3)ccc21` [(4-chlorophenyl)[6-(1-methylbenzimidazol-5-yl)-2-morpholin-4-ylpyrimidin-4-yl]amine] showed an IC50 of 500 to 1000 nM.
In the case of `Cn1cnc2ccc(-c3cc(Nc4ccc(Cl)cc4)nc(N4CCOCC4)n3)cc21` [(4-chlorophenyl)[6-(1-methylbenzimidazol-6-yl)-2-morpholin-4-ylpyrimidin-4-yl]amine], the IC50 is reported as < 500 nM.
With `Cn1ncc2ncc(-c3cc(Nc4ccc(Cl)cc4)nc(N4CCOCC4)n3)cc21` [(4-chlorophenyl)[6-(1-methylpyrazolo[4,5-b]pyridin-6-yl)-2-morpholin-4-ylpyrimidin-4-yl]amine] the IC50 was 500 to 1000 nM.
`Cn1ncc2ccc(-c3cc(Nc4ccc(Cl)cc4)nc(N4CCOCC4)n3)nc21` [(4-chlorophenyl)[6-(1-methylpyrazolo[4,5-e]pyridin-6-yl)-2-morpholin-4-ylpyrimidin-4-yl]amine] was tested, and the IC50 was 1000 to 5000 nM.
`Cn1c(C2CC2)nc2ccc(-c3cc(Nc4ccc(Cl)cc4)nc(N4CCOCC4)n3)cc21` [(4-chlorophenyl)[6-(2-cyclopropyl-1-methylbenzimidazol-6-yl)-2-morpholin-4-ylpyrimidin-4-yl]amine] showed an IC50 of 500 to 1000 nM.
For `Cc1nc2cc(-c3cc(Nc4ccc(Cl)cc4)nc(N4CCOCC4)n3)ccc2n1C1COC1` [(4-chlorophenyl)[6-(2-methyl-1-oxetan-3-ylbenzimidazol-5-yl)-2-morpholin-4-ylpyrimidin-4-yl]amine], the IC50 was < 500 nM.
In the case of `Cc1nc2ccc(-c3cc(Nc4ccc(Cl)cc4)nc(N4CCOCC4)n3)cc2n1C1COC1` [(4-chlorophenyl)[6-(2-methyl-1-oxetan-3-ylbenzimidazol-6-yl)-2-morpholin-4-ylpyrimidin-4-yl]amine], the IC50 is reported as < 500 nM.
`CCc1nn(C)c2cc(-c3cc(Nc4ccc(Cl)cc4)nc(N4CCOCC4)n3)ccc12` [(4-chlorophenyl)[6-(3-ethyl-1-methyl(1H-indazol-6-yl))-2-morpholin-4-ylpyrimidin-4-yl]amine] showed an IC50 of 1000 to 5000 nM.
In the case of `CCc1nn(C)c2cc(-c3cc(Nc4ccc(Cl)cc4)nc(N4CCOCC4)n3)cnc12` [(4-chlorophenyl)[6-(3-ethyl-1-methylpyrazolo[4,5-b]pyridin-6-yl)-2-morpholin-4-ylpyrimidin-4-yl]amine], the IC50 is reported as 1000 to 5000 nM.
In the case of `Clc1ccc(Nc2cc(-c3ccc4c(cnn4CCN4CCOCC4)c3)nc(N3CCOCC3)n2)cc1` [(4-chlorophenyl){2-morpholin-4-yl-6-[1-(2-morpholin-4-ylethyl)(1H-indazol-5-yl)]pyrimidin-4-yl}amine], the IC50 is reported as 1000 to 5000 nM.
`Clc1ccc(Nc2cc(-c3ccc4cnn(CCN5CCOCC5)c4c3)nc(N3CCOCC3)n2)cc1` [(4-chlorophenyl){2-morpholin-4-yl-6-[1-(2-morpholin-4-ylethyl)(1H-indazol-6-yl)]pyrimidin-4-yl}amine] was tested, and the IC50 was 500 to 1000 nM.
`Clc1ccc(Nc2cc(-c3ccc4c(c3)ncn4CCN3CCOCC3)nc(N3CCOCC3)n2)cc1` [(4-chlorophenyl){2-morpholin-4-yl-6-[1-(2-morpholin-4-ylethyl)benzimidazol-5-yl]pyrimidin-4-yl}amine] showed an IC50 of 500 to 1000 nM.
